Consider 2 compounds from patent US12433867B2, “Pharmaceutical composition comprising FLT3 inhibitor and hypomethylating agent for treating acute myeloid leukemia” (HANMI PHARM. CO., LTD, priority 2019, dated 2025).

Molecules are shown by their SMILES.

In assay [1] the test system is MOLM-13 (DSMZ no. ACC 554) cell line. Briefly: MOLM-13 cell growth inhibition (CellTiter-Glo), Compound A alone or combined with azacitidine. It counts as cell-based. On the procedure:
By examining growth inhibition of an MOLM-13 (DSMZ no. ACC 554) cell line which was treated with, in combination, an FLT3 inhibitor, 5-chloro-N-(3-cyclopropyl-5-(((3R,5S)-3,5-dimethylpiperazin-1-yl)methyl)phenyl)-4-(6-methyl-1H-indol-3-yl)pyrimidin-2-amine (hereinafter, Compound A) and a hypomethylating agent (HMA), 4-amino-1-β-D-ribofuranosyl-1,3,5-triazin-2(1H)-one (hereinafter, azacitidine), an effect of combined treatment of the two drugs was tested. The MOLM-13 cell line cultured in an RPMI 1640 culture medium (RPMI=Rosewell Parker Memory Institute) supplemented with 20% FBS was inoculated at a density of 2×10^4 cells per well in a 96-well plate, and Compound A was subjected to ½ serial dilution at predetermined concentrations (e.g., 10 nM to 0.078 nM) using the same culture medium. […] To measure cell viability, a CellTiter-Glo® (CTG) assay was performed, and for result analysis, 50% cell growth inhibition (GI50) was calculated using a GraphPad Prism software.

The test system of another assay is MOLM-13-Luc2 cell line. Description: Mouse model xenografted with MOLM-13-Luc2 cell line, survival. It counts as in vivo. Conditions: NOG mouse, MOLM-13-Luc2 i.v.; Compound A 10 mg/kg/day oral once a day; azacitidine 3 mg/kg/day i.p. twice a week. On the procedure:
A comparison of Compound A and azacitidine or an efficacy test of combination thereof was conducted in a mouse model xenografted with a MOLM-13-Luc2 cell line which is a MOLM-13 cell line genetically modified to express luciferase.
The MOLM-13-Luc2 cell line was injected to a tail vein of NOG mouse at 5×10^6 cells/0.1 mL/mouse, and allowed to grow.
Bioluminescence images of MOLM-13-Luc2 cells were measured using a Lumina III IVIS imaging system (PerkinElmer) and quantified using a Living image software (PerkinElmer). When measured, D-luciferin (D-luciferin) was intraperitoneally injected to mice, and imaging was were performed under anesthesia using isoflurane. Images were measured for a first group separation during the experiment, and then measured on a specific day according to the purpose of the test.
A control group orally received a DMSO/PEG400/DW (ratio=0.5/2/7.5, v/v) mixed solution once a day, and a Compound A group was orally administered once a day at a dose of 10 mg/kg/day. An azacitidine group which is a hypomethylating agent (HMA) group was intraperitoneally administered at a dose of 3 mg/kg/day twice a week (on day 1 and day 4 of the week). A combination group was orally administered with Compound A at a dose of 10 mg/kg/day once a day, and azacitidine was intraperitoneally administered at a dose of 3 mg/kg/day twice a week (on day 1 and day 4 every week). Each group received individual drugs until all subjects in each group died.
The Y-axis represents a percentage (%) of surviving mice (survival rate) in each experimental group, and the X-axis represents the number of days of administration.

Assay [2] concerns Ba/F3 cells expressed in an FLT3 ITD/D835Y xenografted mouse model. Briefly: In vivo study, Ba/F3 FLT3 ITD/D835Y xenografted mouse model.
Assay [3] relates to Ba/F3 cells expressed in an FLT3 ITD/F691L xenografted mouse model. Briefly: In vivo study, Ba/F3 FLT3 ITD/F691L xenografted mouse model.

For the compound `Nc1ncn([C@@H]2O[C@H](CO)[C@@H](O)[C@H]2O)c(=O)n1` [Azacitidine, 4-amino-1-β-D-ribofuranosyl-1,3,5-triazin-2(1H)-one, reference compound], the “GI40 (concentration inhibiting MOLM-13 cell growth by about 40%)” value in assay [1] (MOLM-13 cells) is reported as 800 nM. Besides, in the assay with MOLM-13-Luc2 cell line, the median survival period was 16 days and the overall survival period stood at 18 days.
One may read the GI50 as the concentration giving 50% growth inhibition. As to `Cc1ccc2c(-c3nc(Nc4cc(CN5C[C@@H](C)N[C@@H](C)C5)cc(C5CC5)c4)ncc3Cl)c[nH]c2c1` [Compound A, 5-chloro-N-(3-cyclopropyl-5-(((3R,5S)-3,5-dimethylpiperazin-1-yl)methyl)phenyl)-4-(6-methyl-1H-indol-3-yl)pyrimidin-2-amine], the “therapeutic effect / overcoming resistance caused by FLT3 mutations” value in assay [2] and in assay [3] was “shows therapeutic effects” in each case. Moreover, the GI50 in assay [1] (Homo sapiens, 72 h, MOLM-13, incubation 3 days, CTG assay, combination with azacitidine at 800 nM, GI50 as Compound A concentration) is 2.5 nM. The median survival period in the assay with MOLM-13-Luc2 cell line is given as 17 days. Further, the overall survival period with MOLM-13-Luc2 cell line stood at 20 days.
